Measured values taken from US10464967B2, “Non-hormonal steroid modulators of NF-κβ for treatment of disease” (Reveragen Biopharma, Inc., priority 2011, dated 2019).

Legend:
mdx mice = assay: In vivo mdx mouse model of dystrophy
Procedure: Separate groups (n=12-14) of mdx mice were treated with prednisolone (5 mg/kg/day; per oral in feed), Example 1 (20 and 40 mg/kg/day; per oral in feed) and Example 2 (20 and 40 mg/kg/day; per oral in feed) for 3 months. All mice underwent 30 min biweekly treadmill exercise during the treatment duration to unmask the mild disease phenotype of mdx mouse model.
Motor coordination and strength were assessed using Rota-rod (Ugo Basile, VA, Italy) testing. Briefly, mice were trained on the rota-rod for two days before collecting data. Each acclimatization session consisted of four training sessions, 2 per day and each session lasting 120 seconds at a speed of 5 rpm). Each trial consisted of placing the mice on the rod at 10 rpm for 60 seconds (stabilizing period) followed by an acceleration from 10 rpm to 40 rpm within the first 25 seconds until the animal fell from the rod or until 180 seconds are reached. If the animals fell during the stabilizing period, they were placed back on the rod to complete the session. The total testing time was 240 seconds (60 seconds stabilization time and 180 seconds test time). Each trial was performed twice a day (2 hour interval between sessions) for 3 consecutive days. The latency to fall (seconds) was recorded and all six scores were averaged per mouse. The average data was expressed as latency to fall (in seconds) for each group mice at 3 age groups.
The distal tendon of the extensor digitorum longus (EDL) muscle was tied securely to the lever arm of a servomotor/force transducer (model 305B, Aurora Scientific, Richmond Hill, ON, Canada) and the proximal tendon to a tissue clamp. Muscles were stimulated between two platinum electrodes. […] With the muscle held at Lo using stimulation frequencies of 30, 50, 80, 100, 120 and 150 Hz, the maximum isometric tetanic force (Po) developed during a 300 ms train of stimulation pulses was recorded for the EDL muscle. The muscle length was then measured with calipers and after removal of the muscle from the bath the mass of the muscle was determined. For each muscle, the optimum fiber length (Lf) was calculated by multiplying Lo by a previously determined Lf/Lo ratio of 0.45. Total muscle fiber cross-sectional area was determined by dividing the wet mass by the product of Lf and the density of mammalian skeletal muscle (1.06 mg/mm^3). Maximum isometric specific force (sPo) was determined by dividing Po by the total muscle fiber cross-sectional area.

DBA/1 mice = assay: Collagen antibody induced arthritis (CAIA) model; type: in vivo, mouse; details: for Mean clinical severity score / Reduction as compared with vehicle-treated mice: prednisone 5 mg/kg, Example 9 20 mg/kg oral
Procedure: On day 1, DBA/1 mice (Jackson Labs, Bar Harbor, Me.) received an intraperitoneal (i.p.) injection of 2 mg of monoclonal antibody cocktail specific for collagen (CII) (MD Biosciences, St. Paul, Minn.). Two days later (day 3), mice received an i.p. injection of 100 μg of lipopolysaccharide (LPS). Mean clinical severity of CAIA was determined using a macroscopic clinical severity scoring system every 2-3 days by three individuals until the end of the experiment (day 14 post antibody cocktail injection). The scoring criteria was performed as follows: 0: No signs of disease; 1: Mild redness and/or swelling of one digit; 2: Redness and/or swelling of 2 digits; 3: Redness and/or swelling of more than 2 digits; 4: Redness and swelling of entire paw.
For intervention studies, mice (n=10) received an oral dose of 20 mg/kg of the compound of Example 9 suspended in cherry syrup (30 μl total volume) on day 0 through day 14. Additional groups of mice (n=10) received 5 mg/kg of prednisone in cherry syrup as a positive control, or cherry syrup alone as a negative control. On day 14, animals were sacrificed via CO2 exposure. Statistical analysis was performed using a two-way ANOVA followed by a Bonferroni post-hoc test.

mice = assay: OVA-induced mouse model of acute allergic asthma; type: in vivo; details: 20 mg/kg oral on days 6-11
Procedure: The model used in the current studies has been previously described (Gwinn et al. 2006; Balsley et al. 2010). Briefly, mice were primed via intraperitoneal (i.p) injection with 50 μg of OVA in PBS with 100 μl of alum (200 μl total volume per mouse) on day 0. OVA-primed mice were challenged under light anesthesia (isoflurane) by intranasal delivery of 100 μg of OVA in PBS on days 7-10. Mice were sacrificed via CO2 exposure on day 12 for analysis.
For in vivo intervention studies, mice (n=5) received an oral dose of 20 mg/kg of the compound of Example 9 suspended in cherry syrup (30 μl total volume) on days 6-11. Additional groups of mice (n=5) received 5 mg/kg of prednisone in cherry syrup as a positive control, or cherry syrup alone as a negative control. Following sacrifice on day 12, leukocytes were collected from the airways via bronchoalveolar lavage (BAL). For this procedure, a cannula was inserted into the trachea and two 1 ml washes of cold PBS were infused in and out of the airways. […]
BAL and lung tissue cells were treated with ammonium chloride lysis buffer to remove red blood cells. The remaining leukocytes were then counted and stained for FACS analysis with a combination of PE-Cy5-anti-mouse CD4 and FITC-anti-mouse CD62L to identify effector/memory CD4+ cells (CD4+/CD62L−). […]

C57BL/6 mice = assay: Mouse carrageenan-induced paw edema model; type: in vivo; details: 10, 20, 40 mg/kg in cherry syrup; 5 hours after carrageenan
Procedure: Female C57BL/6 mice (n=5 per group) were administered prednisone (5 mg/kg) and the compound of Example 9 (10, 20, 40 mg/kg) in cherry syrup. 24 hours later, drugs and vehicle control (syrup) were administered again. 2 hours later, mice were anesthetized, paw thickness was measured with a caliper to obtain a baseline value, and 1% carrageenan was injected subcutaneously in the subplantar region of the right hind paw. Mice were sacrificed 5 hours later and paw edema was measured via caliper. Change in thickness was calculated by subtracting baseline value from post-carrageenan injection value. Statistical analysis was performed using a Student's T-test.

[1] = 20 and 40 mg/kg/day for 3 months, vs untreated and prednisolone treated

Structure (SMILES) | Histology (H&E) of gastrocnemius muscle (mdx mice; [1]) | Mean clinical severity score (DBA/1 mice; Day 7) | Reduction as compared with vehicle-treated mice (DBA/1 mice; Day 7) | Mean clinical severity score (DBA/1 mice; Day 9) | Reduction as compared with vehicle-treated mice (DBA/1 mice; Day 9) | Mean clinical severity score (DBA/1 mice; Day 11) | Reduction as compared with vehicle-treated mice (DBA/1 mice; Day 11) | Mean clinical severity score (DBA/1 mice; Day 14) | Reduction as compared with vehicle-treated mice (DBA/1 mice; Day 14) | further results
C[C@]12CCC(=O)C=C1CCC1C2=CC[C@@]2(C)C1CC[C@]2(O)C(=O)CO (stereo partly drawn) [Example 1, (10S,13S,17R)-17-hydroxy-17-(2-hydroxyacetyl)-10,13-dimethyl-6,7,8,10,12,13,14,15,16,17-decahydro-1H-cyclopenta[a]phenanthren-3(2H)-one] | significant decrease in inflammation, degeneration, and increase in regenerating muscle fibers | – | – | – | – | – | – | – | – | –
C[C@]12C=CC(=O)C=C1CCC1C2=CC[C@@]2(C)C1CC[C@]2(O)C(=O)CO (stereo partly drawn) [Example 2, (10S,13S,17R)-17-hydroxy-17-(2-hydroxyacetyl)-10,13-dimethyl-6,7,8,10,12,13,14,15,16,17-decahydro-3H-cyclopenta[a]phenanthren-3-one] | significant decrease in inflammation, degeneration, and increase in regenerating muscle fibers | – | – | – | – | – | – | – | – | –
C[C@@H]1CC2C3CCC4=CC(=O)C=C[C@]4(C)C3=CC[C@]2(C)[C@@]1(O)C(=O)CO (stereo partly drawn) [Example 9, (10S,13S,16R,17R)-17-hydroxy-17-(2-hydroxyacetyl)-10,13,16-trimethyl-6,7,8,10,12,13,14,15,16,17-decahydro-3H-cyclopenta[a]phenanthren-3-one] | – | 4.5 ± 0.95 | 43.8% | 5.0 ± 0.77 | 35.5% | 5.6 ± 0.82 | 41.3% | 3.1 ± 0.69 | 50% | Collagen antibody induced arthritis (DBA/1 mice; 20 mg/kg oral, day 0 through day 14): effective at reducing collagen antibody induced arthritis; Parameters of acute allergic lung inflammation (leukocyte infiltration, mucus production) (mice): effective at improving parameters of acute allergic lung inflammation; Carrageenan-induced paw edema (C57BL/6 mice): effective at reducing mouse paw edema induced by carrageenan
C[C@]12C=CC(=O)C=C1CC[C@@H]1[C@@H]2[C@@H](O)C[C@@]2(C)[C@H]1CC[C@]2(O)C(=O)CO [Prednisolone] | – | – | – | – | – | – | – | – | – | Body weight vs untreated mice (mdx mice; 5 mg/kg/day per oral in feed, 33.8 weeks age): significantly lower body weight; Histology (H&E) of gastrocnemius muscle (mdx mice; continuous prednisolone 5 mg/kg/day): appeared to increase degeneration and decrease in regeneration of dystrophic skeletal muscle; EDL specific force vs untreated (mdx mice; prednisolone 5 mg/kg/day): no statistically significant (P<0.05) difference in specific force
C[C@]12C=CC(=O)C=C1CC[C@@H]1[C@@H]2C(=O)C[C@@]2(C)[C@H]1CC[C@]2(O)C(=O)CO [Prednisone, reference compound] | – | 2.4 ± 0.68 | 69.8% | 1.5 ± 0.27 | 69.8% | 2.9 ± 0.39 | 69.1% | 0.7 ± 0.3 | 88.7% | –
